Reference: the CheMixHub viscosity set

Test: xn = mol fraction of the nth substance listed

CCN(CC)c1ccccc1 + CCCCOCCO
viscosity [mPa·s], 101.3 kPa
Details | x2 = 0.0979 | x2 = 0.2008 | x2 = 0.289 | x2 = 0.3526 | x2 = 0.4964 | x2 = 0.5968 | x2 = 0.7021 | x2 = 0.794 | x2 = 0.8979
298 K | 1.87 | 1.887 | 1.923 | 1.968 | 2.102 | 2.198 | 2.343 | 2.461 | 2.631
303 K | 1.679 | 1.686 | 1.711 | 1.756 | 1.853 | 1.942 | 2.067 | 2.175 | 2.305
308 K | 1.511 | 1.516 | 1.538 | 1.572 | 1.655 | 1.731 | 1.844 | 1.927 | 2.048
313 K | 1.369 | 1.371 | 1.393 | 1.429 | 1.487 | 1.552 | 1.65 | 1.725 | 1.824
318 K | 1.248 | 1.249 | 1.262 | 1.286 | 1.365 | 1.402 | 1.481 | 1.544 | 1.631

CCCCCCCCCCCC(=O)OCC + CCCO
viscosity [mPa·s], 101.33 kPa
Details | x2 = 0.1001 | x2 = 0.2003 | x2 = 0.3 | x2 = 0.3999 | x2 = 0.5 | x2 = 0.5999 | x2 = 0.7 | x2 = 0.8 | x2 = 0.9
293.15 K | 3.214 | 3.059 | 2.924 | 2.798 | 2.671 | 2.547 | 2.426 | 2.307 | 2.215
298.15 K | 2.875 | 2.742 | 2.62 | 2.504 | 2.398 | 2.286 | 2.175 | 2.078 | 1.997
303.15 K | 2.579 | 2.464 | 2.353 | 2.252 | 2.15 | 2.052 | 1.956 | 1.869 | 1.786
308.15 K | 2.32 | 2.218 | 2.12 | 2.025 | 1.936 | 1.845 | 1.756 | 1.674 | 1.6
313.15 K | 2.108 | 2.013 | 1.919 | 1.833 | 1.749 | 1.669 | 1.59 | 1.513 | 1.44
318.15 K | 1.935 | 1.849 | 1.767 | 1.688 | 1.609 | 1.531 | 1.454 | 1.381 | 1.315
323.15 K | 1.748 | 1.67 | 1.595 | 1.522 | 1.451 | 1.382 | 1.315 | 1.251 | 1.188

CCCC[NH3+].O=[N+]([O-])[O-] + CCCO
Details | viscosity [mPa·s]
293.15 K, 101 kPa, x1 = 0.9008 | 83.35

Clc1ccc(Cl)c(Cl)c1 + CCNc1ccccc1
viscosity [mPa·s], 101 kPa
Details | 303.15 K | 308.15 K
x2 = 0.0875 | 1.784 | 1.618
x2 = 0.1559 | 1.783 | 1.615
x2 = 0.2286 | 1.782 | 1.612
x2 = 0.2938 | 1.781 | 1.609
x2 = 0.3656 | 1.779 | 1.607
x2 = 0.4225 | 1.777 | 1.604
x2 = 0.4952 | 1.775 | 1.6
x2 = 0.5659 | 1.772 | 1.595
x2 = 0.6359 | 1.768 | 1.589
x2 = 0.7025 | 1.763 | 1.584
x2 = 0.7812 | 1.758 | 1.577
x2 = 0.8525 | 1.752 | 1.571
x2 = 0.9199 | 1.748 | 1.565

CCCC(C)CO (stereo not drawn) + CCO
298.15 K, 101.33 kPa
Details | viscosity [mPa·s]
x2 = 0.1048 | 4.615
x2 = 0.2134 | 3.996
x2 = 0.3147 | 3.481
x2 = 0.4122 | 3.014
x2 = 0.5011 | 2.664
x2 = 0.6144 | 2.253
x2 = 0.7136 | 1.884
x2 = 0.7984 | 1.623
x2 = 0.9049 | 1.303

CC[n+]1ccn(C)c1.NCC(=O)[O-] + CCn1cc[n+](C)c1.N#C[C-](C#N)C#N
Details | viscosity [mPa·s]
313.15 K, 101 kPa, x2 = 0.5001 | 22.25

CCCC(C)CO (stereo not drawn) + CO
298.15 K, 101.33 kPa
Details | viscosity [mPa·s]
x2 = 0.0849 | 4.645
x2 = 0.2146 | 3.757
x2 = 0.3193 | 3.053
x2 = 0.4183 | 2.526
x2 = 0.5192 | 2.018
x2 = 0.6077 | 1.676
x2 = 0.7069 | 1.296
x2 = 0.8045 | 1.018
x2 = 0.9002 | 0.7552

CN1CCOC1=O + CS(C)=O
viscosity [mPa·s], 101.33 kPa
Details | 298.15 K | 308.15 K | 318.15 K
x1 = 0.0465 | 2.004 | 1.663 | 1.404
x1 = 0.0841 | 2.012 | 1.673 | 1.413
x1 = 0.1676 | 2.037 | 1.698 | 1.437
x1 = 0.2419 | 2.06 | 1.72 | 1.459
x1 = 0.3415 | 2.09 | 1.751 | 1.49
x1 = 0.4275 | 2.126 | 1.782 | 1.518
x1 = 0.5401 | 2.171 | 1.826 | 1.558
x1 = 0.6395 | 2.218 | 1.872 | 1.603
x1 = 0.7524 | 2.28 | 1.923 | 1.645
x1 = 0.8785 | 2.359 | 1.99 | 1.703
x1 = 0.9514 | 2.415 | 2.038 | 1.744

CC1(C)OC1C#N (stereo not drawn) + ClC(Cl)(Cl)Cl
viscosity [mPa·s], 101 kPa
Details | 293.15 K | 298.15 K | 303.15 K | 313.15 K | 323.15 K
x1 = 0.009 | 0.983 | 0.938 | 0.906 | 0.779 | 0.67
x1 = 0.087 | 0.98 | 0.937 | 0.877 | 0.754 | 0.675

CCCCCCCCCCBr + ClC(Cl)(Cl)Cl
101 kPa
Details | viscosity [mPa·s]
297.75 K, x1 = 0.0484 | 0.9823
297.75 K, x1 = 0.0969 | 1.057
297.75 K, x1 = 0.1945 | 1.208
297.75 K, x1 = 0.3918 | 1.52
297.75 K, x1 = 0.5923 | 1.858
297.75 K, x1 = 0.7944 | 2.106
303.95 K, x1 = 0.0456 | 0.8918
303.95 K, x1 = 0.0914 | 0.9574
303.95 K, x1 = 0.1852 | 1.105
303.95 K, x1 = 0.2667 | 1.2
303.95 K, x1 = 0.5802 | 1.618
303.95 K, x1 = 0.7825 | 1.864
313.55 K, x1 = 0.0457 | 0.7792
313.55 K, x1 = 0.092 | 0.8323
313.55 K, x1 = 0.1856 | 0.948
313.55 K, x1 = 0.378 | 1.171
313.55 K, x1 = 0.5776 | 1.377
313.55 K, x1 = 0.7832 | 1.562

S + ClC(Cl)Cl
298.15 K, 101 kPa
Details | viscosity [mPa·s]
x1 = 0.00673 | 0.5257
x1 = 0.00998 | 0.5206

FC(F)(Cl)C(F)(F)Cl + FC(F)Cl
101 kPa
Details | viscosity [mPa·s]
293.25 K, x2 = 0.182 | 0.3196
293.25 K, x2 = 0.457 | 0.2521
293.25 K, x2 = 0.568 | 0.2391
293.25 K, x2 = 0.663 | 0.2175
293.25 K, x2 = 0.748 | 0.1992
293.35 K, x2 = 0.947 | 0.1767
293.75 K, x2 = 0.329 | 0.2853
312.85 K, x2 = 0.457 | 0.2097
312.85 K, x2 = 0.663 | 0.1757
312.95 K, x2 = 0.182 | 0.2474
312.95 K, x2 = 0.821 | 0.1515
313.05 K, x2 = 0.568 | 0.1902
313.05 K, x2 = 0.748 | 0.1648
313.05 K, x2 = 0.947 | 0.141
313.15 K, x2 = 0.891 | 0.1461
313.55 K, x2 = 0.329 | 0.2284
